Patent EP0042348A1, “Olivacine derivatives and their therapeutical use” (priority 1980, dated 1981)
Where two headings read alike, the source gives them in different places.

Tests used:
[1] = Toxicity in mice after a single i.p. injection (maximal never-lethal dose); type: in vivo, souris; conditions: for DL0 (i.p.): as printed in the compound cell of the dose-response table; for DL0 (Dose maximale jamais mortelle): mice; for toxicités générales (facteur d'augmentation): change on hydroxylation at position 10 of the named parent; for augmentation de la toxicité (facteur): fold increase on quaternisation
Description: (§1) En pratique, on a utilisé des souris ayant reçu par voie intrapéritonéale un inoculum de cellules de leucémie L 1210 et ayant été, pour la moitié d'entre elles, soumises 24 heures après ladite inoculation tumorale à une injection intrapéritonéale d'une dose unique de l'un des composés à tester; l'autre moitié des souris a reçu une injection d'un volume identique d'un solvant inactif et servait de série témoin. On a réparti les souris au hasard dans chaque série expérimentale. Une première expérimentation de routine a permis de déterminer la mortalité par toxicité et de fixer ainsi les doses infra-létales.
On a ainsi pu déterminer la mortalité par toxicité sous l'effet d'une injection unique de l'un des composés à différentes doses (doses infra-létales DL 50 et DL 100) et évaluer le taux de survie du groupe d'animaux auxquels on n'avait injecté qu'une dose infra-létale d'un composé selon l'invention.
Pour l'évaluation de l'activité thérapeutique des composés selon l'invention, on a exprimé les doses desdits composés en les rapportant à la dose infra-létale 30 jours, que l'on a posée égale à 1. Cette dose infra-létale s'est en effet avérée plus facile à déterminer pour les composés de l'invention que la DL 10, dont elle est d'ailleurs très voisine et qui est habituellement prise comme référence pour l'évaluation de l'activité thérapeutique de composés à effet antitumoral (voir H.E. Skipper et coll., ouvrages cités).

[2] = tested on: leucémie L 1210; assay: Antitumour effect in DBA/2 mice inoculated i.p. with 10^5 L1210 leukaemia cells, single i.p. injection 24 h later; type: in vivo, souris; conditions: for propriétés antitumorales: change on hydroxylation at position 10 of the named parent; for effet thérapeutique antitumoral: change on quaternisation; for propriétés antitumorales chez l'animal (facteur d'accroissement): fold increase on methoxylation at position 10 of the named parent
Description: as §1
Conformément à la convention en usage dans ce domaine, on considérait comme guéris les animaux qui survivaient plus de 45 jours après l'inoculation de cellules tumorales.
On a calculé le taux de survie à partir d'une analyse statistique des résultats expérimentaux, par comparaison avec les résultats obtenus avec la série témoin, selon les méthodes bien connues de Mann-Whitey et de Wilcoxon; le pourcentage de cellules leucémiques tuées par le traitement réalisé était calculé par la méthode décrite par H.E.Skipper et coll. dans les articles cités plus haut, en prenant pour base, suivant le cas, soit l'augmentation de la survie moyenne en l'absence de survivants soit le pourcentage de survivants.
[…] Après 24 heures, on a fait à une moitié de ces souris une injection unique par voie intrapéritonéale d'une dose variable du composé respectif à tester (éventuellement mis au préalable sous la forme de l'un de ses sels hydrosolubles, si nécessaire), tandis qu'on injectait par la même voie à l'autre moitié des souris un même volume de solvant; cette dernière moitié du groupe de souris servait donc de série témoin. On a réparti les souris au hasard dans chaque série expérimentale.

[3] = tested on: cellules L1210; assay: In vitro growth inhibition of L1210 cells (48 h culture); conditions: for IC50: read-out: DI50 (Dose qui réduit de 50 % la croissance des cellules L1210); for diminution de la cytotoxicité (facteur): fold decrease on quaternisation, versus the non-quaternised base
[4] = dose 0,01 of DL0, controls 9,3 ± 0,5 days, 15 mice
[5] = dose 0,1 of DL0, controls 9,3 ± 0,5 days, 15 mice
[6] = dose 0,01 of DL0, controls 9,7 ± 0,9 days, 10 mice
[7] = dose 0,05 of DL0, controls 9,3 ± 0,5 days, 15 mice
[8] = dose 0,5 of DL0, controls 9,3 ± 0,5 days, 15 mice
[9] = dose 0,5 of DL0, controls 9,7 ± 0,9 days, 10 mice
[10] = dose 0,8 of DL0, single i.p., ILS = T/C x 100
[11] = dose 1 of DL0, controls 9,3 ± 0,5 days, 15 mice
[12] = dose 0,005 of DL0, controls 9,3 ± 0,5 days, 15 mice
[13] = dose 0,1 of DL0, controls 9,2 days, 15 mice
[14] = dose 0,02 of DL0, controls 9,7 ± 0,9 days, 10 mice
[15] = dose 0,02 of DL0, controls 9,2 days, 15 mice
[16] = dose 0,5 of DL0, controls 9,2 days, 15 mice
[17] = dose 1 of DL0, controls 9,7 ± 0,9 days, 10 mice
[18] = dose 1 of DL0, controls 9,2 days, 15 mice
[19] = versus the non-quaternised base

## CCN(CC)CC[n+]1ccc2c(C)c3[nH]c4ccc(O)cc4c3cc2c1C [4-β-diéthylaminoéthyl 10-OH olivacinium (acétate)]
[1]
  DL0 (i.p.): 4-β -diéthyl-aminoéthyl 10-hydroxy olivacinium (acétate) DL0 (i.p.) = 100 mg
  DL0 (Dose maximale jamais mortelle): 125 mg/kg
[2]; [4]
  % de cellules tumorales tuées: 99%
  ILS: 128%
  survie moyenne en jours des souris traitées: 11,9 ± 1,1 jours
  survivants: 0/15
[2]; [5]
  % de cellules tumorales tuées: 99,997%
  ILS: 162%
  survie moyenne en jours des souris traitées: 15,1 ± 1,4 jours
  survivants: 0/15
[2]; [6]
  % de cellules tumorales tuées: 97%
  ILS: 120%
  survie moyenne en jours des souris traitées: 11,6 ± 1,1 jours
  survivants: 0/10
[2]; [7]
  % de cellules tumorales tuées: 99,8%
  ILS: 136%
  survie moyenne en jours des souris traitées: 12,7 ± 0,4 jours
  survivants: 1/15
[2]; [8]
  % de cellules tumorales tuées: ≃99,999%
  ILS: 240%
  survie moyenne en jours des souris traitées: 22,3 ± 4,4 jours
  survivants: 1/15
[2]; [9]
  % de cellules tumorales tuées: 99,98%
  ILS: 150%
  survie moyenne en jours des souris traitées: 14,5 ± 2 jours
  survivants: 0/10
[2]; [10]
  ILS: 182%
[2]; dose 0,8 of DL0, single i.p., out of 15 mice
  survivants sur 15: 4
[2]; [11]
  % de cellules tumorales tuées: ≃99,999%
  ILS: 182%
  survie moyenne en jours des souris traitées: 16,9 ± 3,7 jours
  survivants: 4/15
[2]; [12]
  % de cellules tumorales tuées: 99%
  ILS: 127%
  survie moyenne en jours des souris traitées: 11,8 ± 0,8 jours
  survivants: 0/15
[3]; Mus musculus, L1210, 48 h
  IC50: 236 nM

## Cc1nccc2c(C)c3[nH]c4ccc(O)cc4c3cc12 [10-hydroxy olivacine (acétate)]
[1]
  DL0 (i.p.): 10-hydroxy olivacine (acétate) DL0(i.p.) = 50 mg
[2]; [13]
  ILS: non significatif
  survie moyenne en jours des souris traitées: 10,9 jours
  survivants: 0/15
[2]; [14]
  ILS: non significatif
  survie moyenne en jours des souris traitées: 10,5 ± 0,8 jours
  survivants: 0/10
[2]; [15]
  ILS: non significatif
  survie moyenne en jours des souris traitées: 9,6 jours
  survivants: 0/15
[2]; [16]
  ILS: non significatif
  survie moyenne en jours des souris traitées: 12,1 jours
  survivants: 0/15
[2]; [17]
  % de cellules tumorales tuées: 98,98%
  ILS: 148%
  survie moyenne en jours des souris traitées: 14,4 ± 1,3 jours
  survivants: 2/10
[2]; [18]
  ILS: non significatif
  survie moyenne en jours des souris traitées: 11,8 jours
  survivants: 0/15

## Cc1nccc2c(C)c3[nH]c4ccc(O)cc4c3cc12 [10-hydroxy olivacine]
[1]
  DL0 (Dose maximale jamais mortelle): 50 mg/kg
[2]; [10]
  ILS: 139%
[3]; Mus musculus, L1210, 48 h
  IC50: 20 nM

## COc1ccc2[nH]c3c(C)c4ccnc(C)c4cc3c2c1 [10-méthoxy olivacine, reference compound]
[1]
  DL0 (Dose maximale jamais mortelle): 150 mg/kg
[2]; dose 0,66 of DL0, single i.p., ILS = T/C x 100
  ILS: 147%
[3]; Mus musculus, L1210, 48 h
  IC50: 1090 nM

## Cc1nccc2c(C)c3[nH]c4ccccc4c3cc12 [olivacine]
[1]
  toxicités générales (facteur d'augmentation): 5
[2]
  propriétés antitumorales: ne modifie que peu
  effet thérapeutique antitumoral: disparition de l'effet thérapeutique antitumoral
  propriétés antitumorales chez l'animal (facteur d'accroissement): 1,3

## Acétate de 4-méthyl 10-hydroxy olivacinium
[1]; fold decrease on quaternisation, versus the non-quaternised base
  diminution de la toxicité (facteur): 2
[1]
  DL0 (Dose maximale jamais mortelle): 100 mg/kg
[2]
  effet thérapeutique antitumoral: n'est pas modifiée
[2]; dose 1 of DL0, single i.p., ILS = T/C x 100
  ILS: 155%
[3]
  diminution de la cytotoxicité (facteur): 28,1
[3]; listed as 10-hydroxy olivacine quaternarisée
  diminution de la cytotoxicité (facteur): ~30
[3]; L1210 cells, versus controls, after 48 h of culture
  IC50: 562 nM

## Acétate de 4-méthyl 10-méthoxy olivacinium
[1]; [19]
  augmentation de la toxicité (facteur): 1,5
[3]
  diminution de la cytotoxicité (facteur): 1,3

## Acétate de 4-méthyl olivacinium
[1]
  toxicités générales (facteur d'augmentation): ne varient pas
[1]; [19]
  augmentation de la toxicité (facteur): 3,3
[2]
  propriétés antitumorales: fait par contre apparaître des propriétés antitumorales
  propriétés antitumorales chez l'animal (facteur d'accroissement): 1,7
[3]
  diminution de la cytotoxicité (facteur): 1,4
[3]; fold increase on hydroxylation at position 10 of the named parent
  augmentation de la cytotoxicité (facteur): 4
